Data reported in the NIST ThermoML archive (doi:10.1016/j.jct.2016.07.041).
± gives the expanded uncertainty stated by the source.

Experiments:
[1] = 101.33 kPa, Liquid; for viscosity: Capillary tube (Ostwald / Ubbelohde) method; for mass density: Vibrating tube method
[2] = xn = mol fraction of the nth substance listed; conditions: 101 kPa, Liquid, x1 = 1; for viscosity: Capillary tube (Ostwald / Ubbelohde) method; for mass density: Vibrating tube method

Row | SMILES | viscosity ([1]; 293.15 K) [mPa·s] | mass density ([1]; 293.15 K) [kg/m3] | viscosity ([1]; 303.15 K) [mPa·s] | mass density ([1]; 303.15 K) [kg/m3] | viscosity ([1]; 313.15 K) [mPa·s] | mass density ([1]; 313.15 K) [kg/m3] | viscosity ([1]; 323.15 K) [mPa·s] | mass density ([1]; 323.15 K) [kg/m3] | viscosity ([1]; 333.15 K) [mPa·s] | mass density ([1]; 333.15 K) [kg/m3] | viscosity ([2]; 293.15 K) [mPa·s] | mass density ([2]; 293.15 K) [kg/m3] | viscosity ([2]; 303.15 K) [mPa·s] | mass density ([2]; 303.15 K) [kg/m3] | viscosity ([2]; 313.15 K) [mPa·s] | mass density ([2]; 313.15 K) [kg/m3] | viscosity ([2]; 323.15 K) [mPa·s] | mass density ([2]; 323.15 K) [kg/m3] | viscosity ([2]; 333.15 K) [mPa·s] | mass density ([2]; 333.15 K) [kg/m3]
1 | NCCO [2-aminoethan-1-ol] | 23.65 ± 1.4 | 1015.5 ± 1 | 14.75 ± 0.89 | 1007.6 ± 1 | 9.78 ± 0.59 | 999.7 ± 1 | 6.81 ± 0.41 | 991.7 ± 1 | 4.99 ± 0.3 | 983.6 ± 1 |  |  |  |  |  |  |  |  |  | 
2 | CCCCn1cc[n+](C)c1.F[B-](F)(F)F [1-butyl-3-methylimidazolium tetrafluoroborate] | 139.12 ± 8.7 | 1205.1 ± 1.2 | 82.49 ± 5 | 1198 ± 1.2 | 52.33 ± 3.1 | 1190.8 ± 1.2 | 35.16 ± 2.1 | 1183.7 ± 1.2 | 24.69 ± 1.5 | 1176.8 ± 1.2 |  |  |  |  |  |  |  |  |  | 
3 | CCCCn1cc[n+](C)c1.F[B-](F)(F)F [1-butyl-3-methylimidazolium tetrafluoroborate] + NCCO |  |  |  |  |  |  |  |  |  |  | 139.12 ± 8.7 | 1205.1 ± 1.2 | 82.49 ± 5 | 1198 ± 1.2 | 52.33 ± 3.1 | 1190.8 ± 1.2 | 35.16 ± 2.1 | 1183.7 ± 1.2 | 24.69 ± 1.5 | 1176.8 ± 1.2
